Reference: patent US4874765A, “1,4-Disubstituted piperazines having dopaminergic activity” (Richter Gedeon Vegyeszeti Gyar, priority 1986, dated 1989)
Where two headings read alike, the source gives them in different places.

What was measured:
striatum dopamine level = assay: Protection against MPTP-induced striatal dopamine decrease in mice; type: in vivo, male CFY mice; details: for inhibition in vivo at 100 µmol/kg: Mus musculus, 0.1 mmole/kg, 1 hour before MPTP 70 mg/kg s.c., striatum DA 72-96 hours after MPTP
Method: The dopaminergic activity of the compounds of the invention was determined by in vitro and in vivo animals tests. On the examination of the in vivo activity, the protective capability of the compounds against the neurotoxic effect of 1-methyl-4-phenyl-1,2,3,6-tetrahydropyridine (MPTP) was also studied. […] Davis et al.: Psychiat.
(§1) For these investigations male CFY mice (LATI, Godollo, Hungary) weighing 20-25 g were used. The compounds to be tested were homogenized in 1% Tween 80 solution and administered to the animals in a dose of 0.1 mmole/kg (in the route given in the Table) 1 hour before administering MPTP. MPTP was freshly dissolved in physiological saline solution and subcutaneously given to the mice in a dose of 70 mg/kg. 72 to 96 hours after the administration of MPTP the animals were killed by decapitation, their brain was rapidly removed, cooled in an ice-cold physiological saline solution, the striatum was excised and refrigerated in dry ice.
The tissues (in a refrigerated condition) were weighed and homogenized in 1 ml of 0.4N perchloric acid solution containing 0.5% of Na2 S2 O5, 0.25 % of Na2 EDTA and 100 ng of M-methyldopamine (internal standard for the determination of catecholamines) in an Ultra-Turrax equipment. The homogenate was centrifuged at 4° C. at 20,000 g for 10 minutes, then 0.8 ml of the supernatent was taken out. After adding 20 mg of activated aluminum oxide, the pH value of the solution was adjusted to 8 by adding 0.5M Tris solution and the tubes were shaken for 20 minutes. The aluminium oxide was settled, the supernatent was removed by suction and washed 3 times with 5 ml of distilled water each. The catecholamines adsorbed on the aluminium oxide were eluted with 1 ml of 0.05N perchloric acid. From a part of the eluate, dopamine was determined by using high pressure liquid chromatography by means of electrochemical detection (Labor MIM Oe-320 pump, 4×150 mm Nucleosil 5 C-18 analytical column and 4×20 mm Nucleosil 5 C-18 supplementary column; electrochemical detector fitted with a glassy-carbon working electrode and an Ag/AgCl2 reference electrode; Eltron potentiostat, LKB 2110 2-channel recorder; with an oxidation potential of 600 mV and as mobile phase 0.1M NaH2 PO4, 1 mM Na2 EDTA, 1 mM octanesulfonic acid containing 8.5% of acetonitrile; flow rate 1 ml/minute).
The protection against the dopamine decrease induced by MPTP was calculated as follows: [formula]
(§2) As a referenced drug, trihexyphenidyl hydrochloride (α-cyclohexyl-α-phenyl-1-piperidinepropanol hydrochloride) was used in a dose of 10 mg/kg (<0.1 mmole/kg).

dopaminergic system [1] = details: cited from earlier work
dopaminergic system [2] = details: cited from earlier work; remark: listed apart in the source
[3] = dose higher than 10 mg/kg; mice
Method: as §1, §2

[4] = ip, read-out: DA decrease induced by MPTP, % inhibition, i.p. route
[5] = po, read-out: DA decrease induced by MPTP, % inhibition, p.o. route

| SMILES | inhibition in vivo at 100 µmol/kg (striatum dopamine level; [4]) [%] | inhibition in vivo at 100 µmol/kg (striatum dopamine level; [5]) [%] | other results |
| --- | --- | --- | --- |
| C=CCN1CCN(CCOC(c2ccc(F)cc2)c2ccc(F)cc2)CC1 [Compound 1, 1-[2[bis(4-fluorophenyl)methoxy]ethyl]-4-(2-propenyl)-piperazine] | 98 | 100 |  |
| CCCN1CCN(CCOC(c2ccc(F)cc2)c2ccc(F)cc2)CC1 [Compound 2] | 100 |  |  |
| C=CCN1CCN(CCOC(c2ccccc2)c2ccc(F)cc2)CC1 (centres unmarked) [Compound 3, 1-[2-[(4-fluorophenyl)-phenylmethoxy]ethyl]-4-(2-propenyl)piperazine] |  | 100 |  |
| C=CCN1CCN(CCOC(c2ccc(F)cc2)c2ccc(Cl)cc2)CC1 (centres unmarked) [Compound 4, 1-[2-[(4-chlorophenyl)-(4-fluorophenyl)methoxy]-ethyl]-4-(2-propenyl)piperazine] | 100 |  |  |
| C=CCN1CCN(CCOC(c2ccc(F)cc2)c2ccc(Br)cc2)CC1 (centres unmarked) [Compound 5, 1-[2-[(4-bromophenyl)-(4-fluorophenyl)methoxy]-ethyl]-4-(2-propenyl)piperazine] | 100 |  |  |
| C=CCN1CCN(CCOC(c2ccc(Cl)cc2)c2ccc(Cl)cc2)CC1 [Compound 6, 1-[2-[bis(4-chlorophenyl)methoxy]ethyl]-4-(2-propenyl)piperazine] | 100 |  |  |
| C=CCN1CCN(CCOC(c2ccccc2)c2ccc(Cl)c(Cl)c2)CC1 (centres unmarked) [Compound 7, 1-[2-[(3,4-dichlorophenyl)-phenylmethoxy]ethyl]--4-(2-propenyl)-piperazine] | 100 | 98 |  |
| CCCN1CCN(CCOC(c2ccc(F)cc2)c2ccc(Cl)cc2)CC1 (centres unmarked) [Compound 8, 1-[2-[(4-chlorophenyl)-(4-flurophenyl)methoxy]-ethyl]-4-propyl-piperazine] | 95 |  |  |
| CCCCN1CCN(CCOC(c2ccc(F)cc2)c2ccc(F)cc2)CC1 [Compound 9, 1-[2-[bis(4-flurophenyl)methoxy]ethyl]-4-butyl-piperazine] | 100 |  |  |
| C=CCN1CCN(CCOC(C)(c2ccc(F)cc2)c2ccc(F)cc2)CC1 [Compound 10, 1-[2-[1-bis(4-fluorophenyl)ethoxy]ethyl]-4-(2-propenyl)piperazine] | 89 |  |  |
| CCCCCC(=O)N1CCN(CCOC(c2ccc(F)cc2)c2ccc(F)cc2)CC1 [Compound 11, 1-[2-[bis(4-fluorophenyl)methoxy]ethyl]-4-(1-oxo-hexyl)piperazine] | 82 |  |  |
| C#CCN1CCN(CCOC(c2ccc(F)cc2)c2ccc(F)cc2)CC1 [Compound 12, 1-[2-[bis(4-fluorophenyl)methoxy]ethyl]-4-(2--propynyl)piperazine] |  | 94 |  |
| C=C(C)CN1CCN(CCOC(c2ccc(F)cc2)c2ccc(F)cc2)CC1 [Compound 13, 1-[2-[bis(4-fluorophenyl)methoxy]ethyl]-4-(2-methyl--2-propenyl)-piperazine] |  | 95 |  |
| CCC(=O)N1CCN(CCOC(c2ccc(F)cc2)c2ccc(F)cc2)CC1 [Compound 14, 1-[2-[bis(4-fluorophenyl)methoxy]ethyl]-4-(1-oxo-propyl)piperazine] |  | 71 |  |
| CCCCN1CCN(CCOC(c2ccccc2)c2ccc(Cl)c(Cl)c2)CC1 (centres unmarked) [Compound 15] | 98 |  |  |
| CCCCN1CCN(CCOC(c2ccc(F)cc2)c2ccc(Cl)cc2)CC1 (centres unmarked) [Compound 16, 1-[2-[(4-chlorophenyl)-(4-fluorophenyl)methoxy]-ethyl]-4-butylpiperazine] |  | 86 |  |
| CCCCCCN1CCN(CCOC(c2ccc(F)cc2)c2ccc(F)cc2)CC1 [Compound 17, 1-[2-[bis(4-fluorophenyl)methoxy]ethyl]-4-hexyl-piperazine] |  | 89 |  |
| CN1CC=C(c2ccccc2)CC1.Cl [MPTP, 1-methyl-4-phenyl-1,2,3,6-tetrahydropyridine hydrochloride] |  |  | degeneration of the dopaminergic system in men and monkeys (dopaminergic system [1]): causes the degeneration of the dopaminergic system; selective dopaminergic system-damaging effect on mice (dopaminergic system [2]): selective dopaminergic system-damaging effect |
| Cl.OC(CCN1CCCCC1)(c1ccccc1)C1CCCCC1 (stereo not drawn) [Trihexyphenidyl.HCl, α-cyclohexyl-α-phenyl-1-piperidinepropanol hydrochloride, reference compound] |  |  | lethality at doses above 10 mg/kg [3]: The animals perished on administration of a higher dose; DA decrease induced by MPTP, % inhibition, i.p. route (reference drug) (striatum dopamine level; i.p., 10 mg/kg (<0.1 mmole/kg), before MPTP 70 mg/kg s.c.): 7% |
